Laboratory results published in patent US9902728B2, “Pyrrolo and pyrazolopyrimidines as ubiquitin-specific protease 7 inhibitors” (Forma Therapeutics, Inc., priority 2014, dated 2018).

The compounds below were run against T1, USP7 (Homo sapiens, UniProt Q93009) (assay: USP7 Assay A (Ubitquin-Rhodamine 110 Assay)). Details: USP7 assay A and B (table does not say which assay per compound); read-out: USP7_IC50.
T1 construct: USP7, construct USP7 (208-1102) 6*His, Viva Biotech; 6xHis (C); purchased Viva Biotech
Assay type: biochemical
Protocol: Each assay was performed in a final volume of 15 μL in assay buffer containing 20 mM Tris-HCl (pH 8.0, (1M Tris-HCl, pH 8.0 solution; Corning 46-031-CM)), 1 mM GSH (L-Glutathione reduced; Sigma #G4251), 0.03% BGG ([…], Sigma, #G7516-25G), and 0.01% Triton X-100 (Sigma, #T9284-10L). […] 5 μL of 2× enzyme was added to assay plates (pre-stamped with compound) preincubated with USP7 for 30 minutes and then 5 μL of 2×Ub-Rh110 was added to assay plates. […] Fluorescence was read on the Envision (Excitation at 485 nm and Emission at 535 nm; Perkin Elmer) or on the PheraSTAR (Excitation at 485 nm and Emission at 535 nm; BMG Labtech).
Data from USP7 Assays A and B were reported as percent inhibition (inh) compared with control wells based on the following equation: % inh=1−((FLU−AveLow)/(AveHigh−AveLow)) where FLU=measured Fluorescence (See Tables 6-10). AveLow=average Fluorescence of no enzyme control (n=16). AveHigh=average Fluorescence of DMSO control (n=16). […] Data is fitted using the Levenburg Marquardt algorithm.

T1 sequence (Q93009 208-1102): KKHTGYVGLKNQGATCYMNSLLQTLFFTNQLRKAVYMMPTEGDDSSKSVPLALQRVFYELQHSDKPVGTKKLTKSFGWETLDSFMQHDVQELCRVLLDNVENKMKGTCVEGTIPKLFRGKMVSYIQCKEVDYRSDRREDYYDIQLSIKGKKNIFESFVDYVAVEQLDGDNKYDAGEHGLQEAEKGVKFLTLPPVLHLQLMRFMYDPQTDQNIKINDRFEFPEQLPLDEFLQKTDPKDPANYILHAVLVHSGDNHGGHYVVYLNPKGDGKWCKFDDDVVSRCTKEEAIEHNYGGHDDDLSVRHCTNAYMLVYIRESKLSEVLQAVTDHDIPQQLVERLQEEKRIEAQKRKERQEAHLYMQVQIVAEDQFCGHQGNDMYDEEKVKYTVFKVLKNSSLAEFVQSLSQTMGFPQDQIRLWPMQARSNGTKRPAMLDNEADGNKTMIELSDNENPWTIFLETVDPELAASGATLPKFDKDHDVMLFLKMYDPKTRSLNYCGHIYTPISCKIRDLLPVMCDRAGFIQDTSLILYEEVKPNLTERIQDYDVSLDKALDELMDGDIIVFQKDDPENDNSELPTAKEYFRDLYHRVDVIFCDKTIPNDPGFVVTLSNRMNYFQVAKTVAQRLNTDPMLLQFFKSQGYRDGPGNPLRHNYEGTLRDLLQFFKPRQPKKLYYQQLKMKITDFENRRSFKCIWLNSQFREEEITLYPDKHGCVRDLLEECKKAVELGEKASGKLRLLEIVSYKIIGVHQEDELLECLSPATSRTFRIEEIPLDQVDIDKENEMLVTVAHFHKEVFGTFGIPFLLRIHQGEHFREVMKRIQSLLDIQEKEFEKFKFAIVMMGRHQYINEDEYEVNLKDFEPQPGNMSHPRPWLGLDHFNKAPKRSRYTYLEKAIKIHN

Row | SMILES | IC50 [µM]
1 | CC(C)n1ncc2c(=O)n(CC3(O)CCN(C(=O)c4ccc(Oc5ccccc5)cc4)CC3)cnc21 [Compound I-62] | > 10
2 | C[C@H](CC(=O)N1CCC(O)(Cn2cnc3c(cnn3-c3ccc(F)cc3)c2=O)CC1)c1ccccc1 [Compound I-65] | < 0.2
3 | O=C(c1ccc(Oc2ccccc2)cc1)N1CCC(O)(Cn2cnc3c(cnn3-c3ccc(F)cc3)c2=O)CC1 [Compound I-66] | 0.2 to 1
4 | C[C@H](CC(=O)N1CCC(O)(Cn2cnc3c(cnn3-c3cccc(C(F)(F)F)c3)c2=O)CC1)c1ccccc1 [Compound I-67] | < 0.2
5 | Cc1ccc(-n2ncc3c(=O)n(CC4(O)CCN(C(=O)C[C@@H](C)c5ccccc5)CC4)cnc32)cc1 [Compound I-68] | < 0.2
6 | Cc1ccc(-n2ncc3c(=O)n(CC4(O)CCN(C(=O)c5ccc(Oc6ccccc6)cc5)CC4)cnc32)cc1 [Compound I-69] | 0.2 to 1
7 | C[C@H](CC(=O)N1CCC(O)(Cn2cnc3c(cnn3-c3ccccn3)c2=O)CC1)c1ccccc1 [Compound I-70] | 0.2 to 1
8 | C[C@H](CC(=O)N1CCC(O)(Cn2cnc3c(cnn3-c3ccccc3)c2=O)CC1)c1ccccc1 [Compound I-72] | < 0.2
9 | O=C(c1ccc(Oc2ccccc2)cc1)N1CCC(O)(Cn2cnc3c(cnn3-c3ccccc3)c2=O)CC1 [Compound I-73] | 0.2 to 1
10 | CC(CC(=O)N1CCC(O)(Cn2cnc3c(cnn3C)c2=O)CC1)c1ccc(F)cc1 (stereo not shown) [Compound I-78] | 0.2 to 1
11 | Cn1ncc2c(=O)n(CC3(O)CCN(C(=O)c4ccc(-c5ccccc5CC#N)cc4)CC3)cnc21 [Compound I-83] | 1 to 10
12 | CC(CC(=O)N1CCC(O)(Cn2cnc3c(cnn3C)c2=O)CC1)n1cccc1 (stereo not shown) [Compound I-105] | 0.2 to 1
13 | Cn1ncc2c(=O)n(CC3(O)CCN(C(=O)c4ccc(S(=O)(=O)Nc5ccccc5)cc4)CC3)cnc21 [Compound I-106] | 1 to 10
14 | CN(C(=O)c1ccc(C(=O)N2CCC(O)(Cn3cnc4c(cnn4C)c3=O)CC2)cc1)c1ccccc1 [Compound I-108] | 1 to 10
15 | Cn1ncc2c(=O)n(CC3(O)CCN(C(=O)c4ccc(NS(=O)(=O)c5ccccc5)cc4)CC3)cnc21 [Compound I-111] | 1 to 10
16 | Cn1ncc2c(=O)n(CC3(O)CCN(C(=O)c4ccc5c(c4)CCN(c4ccccc4)C5)CC3)cnc21 [Compound I-115] | 1 to 10
17 | CN(Cc1ccccc1)c1ccc(C(=O)N2CCC(O)(Cn3cnc4c(cnn4C)c3=O)CC2)cc1 [Compound I-119] | 0.2 to 1
18 | O=C(C[C@H](c1ccccc1)C(F)(F)F)N1CCC(O)(Cn2cnc3c(cnn3-c3ccccc3)c2=O)CC1 [Compound I-141] | 1 to 10
19 | O=C(C[C@@H](c1ccccc1)C(F)(F)F)N1CCC(O)(Cn2cnc3c(cnn3-c3ccccc3)c2=O)CC1 [Compound I-142] | < 0.2
20 | Cn1ncc2c(=O)n(CC3(O)CCN(C(=O)C[C@H](c4ccccc4)C(F)(F)F)CC3)cnc21 [Compound I-143] | 1 to 10
21 | Cc1ccc(-n2ncc3c(=O)n(CC4(O)CCN(C(=O)C[C@H](c5ccccc5)C(F)(F)F)CC4)cnc32)cc1 [Compound I-144] | 1 to 10
22 | Cc1ccc(-n2ncc3c(=O)n(CC4(O)CCN(C(=O)C[C@@H](c5ccccc5)C(F)(F)F)CC4)cnc32)cc1 [Compound I-145] | < 0.2
23 | Cn1ncc2c(=O)n(CC3(O)CCN(C(=O)CC(c4ccccc4)C(F)F)CC3)cnc21 (stereo not shown) [Compound I-147] | 1 to 10
24 | O=C(c1cccn1Cc1ccccc1)N1CCC(O)(Cn2cnc3c(cnn3-c3ccccc3)c2=O)CC1 [Compound I-150] | < 0.2
25 | O=C(c1ccc(Oc2ccccc2)cc1)N1CCC(O)(Cn2cnc3c(cnn3C3CC3)c2=O)CC1 [Compound I-152] | 1 to 10
26 | O=C(c1ccccc1)N1CCC(O)(Cn2cnc3c(cnn3-c3ccccc3)c2=O)CC1 [Compound I-153] | 1 to 10
27 | CC(=O)N1CCC(O)(Cn2cnc3c(cnn3-c3ccccc3)c2=O)CC1 [Compound I-154] | 1 to 10
28 | Cn1cnc(C(=O)N2CCC(O)(Cn3cnc4c(cnn4-c4ccccc4)c3=O)CC2)c1 [Compound I-155] | 1 to 10
